Measurements from patent US9650334B2 (AbbVie Deutschland GmbH & Co. KG, priority 2013, dated 2017).

Target: T1, human GlyT1c transporter (Homo sapiens, UniProt P48067)
T1 sequence (P48067 1-706): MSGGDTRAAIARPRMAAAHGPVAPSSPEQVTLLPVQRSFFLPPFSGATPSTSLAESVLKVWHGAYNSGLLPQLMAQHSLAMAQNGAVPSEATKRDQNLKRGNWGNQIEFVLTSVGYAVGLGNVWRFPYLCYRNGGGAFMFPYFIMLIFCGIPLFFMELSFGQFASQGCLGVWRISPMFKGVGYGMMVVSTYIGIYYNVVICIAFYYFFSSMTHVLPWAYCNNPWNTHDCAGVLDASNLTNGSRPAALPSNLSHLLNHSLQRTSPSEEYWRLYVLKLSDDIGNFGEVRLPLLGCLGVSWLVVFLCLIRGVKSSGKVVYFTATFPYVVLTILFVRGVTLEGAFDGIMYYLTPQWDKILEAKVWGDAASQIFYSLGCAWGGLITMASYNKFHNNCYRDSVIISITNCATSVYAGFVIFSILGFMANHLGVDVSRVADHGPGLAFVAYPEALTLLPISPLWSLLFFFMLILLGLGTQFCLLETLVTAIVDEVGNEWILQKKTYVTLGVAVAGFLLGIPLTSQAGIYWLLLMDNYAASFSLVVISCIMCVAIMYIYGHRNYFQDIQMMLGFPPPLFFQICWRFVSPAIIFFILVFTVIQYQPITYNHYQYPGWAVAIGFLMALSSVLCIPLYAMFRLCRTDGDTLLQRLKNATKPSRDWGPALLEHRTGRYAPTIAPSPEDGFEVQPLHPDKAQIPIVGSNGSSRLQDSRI
Assay: Radioligand binding assays using recombinant CHO cell membranes expressing human GlyT1
Details: Ki, radioligand binding to human GlyT1c transporter-expressing CHO cell membranes

Compound: Cc1ccc(C(N[C@H]2CN(S(=O)(=O)c3cn(C)cn3)C[C@@H]2c2ccc(F)cc2)C(F)(F)F)cc1 (stereo partly drawn) [Example 876, (3R,4S)-4-(4-fluorophenyl)-1-[(1-methyl-1H-imidazol-4-yl)sulfonyl]-N-[2,2,2-trifluoro-1-(4-methylphenyl)ethyl]pyrrolidin-3-amine]
- Ki: ≤ 1000 nM
